In this experiment the target is T1, Human M4 (Homo sapiens, UniProt P08173).
T1 construct: Human or rat M4 cDNA, along with the chimeric G protein Gqi5, were transfected into Chinese hamster ovary (CHO-K1) cells; expressed in transfected cells; host or cells: CHO-K1 (Chinese hamster ovary, ATCC), stably co-expressing Gqi5
T1 sequence (P08173 1-479): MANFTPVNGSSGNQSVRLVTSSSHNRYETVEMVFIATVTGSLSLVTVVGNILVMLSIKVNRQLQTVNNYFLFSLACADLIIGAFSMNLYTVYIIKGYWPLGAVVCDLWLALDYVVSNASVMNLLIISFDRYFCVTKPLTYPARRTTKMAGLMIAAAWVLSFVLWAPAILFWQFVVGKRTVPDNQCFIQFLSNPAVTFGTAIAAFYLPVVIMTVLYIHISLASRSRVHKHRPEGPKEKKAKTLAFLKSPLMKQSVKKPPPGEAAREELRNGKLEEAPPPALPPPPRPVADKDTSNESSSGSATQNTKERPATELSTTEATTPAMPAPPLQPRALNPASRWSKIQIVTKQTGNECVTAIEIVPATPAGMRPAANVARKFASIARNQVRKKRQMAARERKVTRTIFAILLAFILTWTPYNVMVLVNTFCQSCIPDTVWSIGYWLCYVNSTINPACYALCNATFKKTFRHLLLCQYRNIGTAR
Kind of experiment: mAChR M4 cell-based functional assay (calcium flux, decrease of EC80 acetylcholine response). The conditions noted are these: for remaining activity at 30 µM: read-out: Human M4 Emin; for pIC50: M4/Gqi5/CHO-K1 cells, decrease of response to EC80 acetylcholine. The procedure, abridged:
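CHO-K1 cells stably co-expressing M4 and chimeric Gqi5, loaded with Fluo-4 AM; calcium flux read on FDSS. Compound added at 2 s, EC20 acetylcholine at 143 s, EC80 acetylcholine at 268 s. IC50 from concentration-dependent decrease of the EC80 response, four-parameter logistic fit; 10-point 1:3 titrations.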

For orientation: pIC50 means the IC50 on a negative log10 scale, so that one unit is a factor of ten.

Molecules are shown by their SMILES. pIC50: −log10 of the molar value. Where only a bound is given, the exact number is not on record here.

On to `FC(F)(F)c1cc(-c2ccc3ncsc3c2)nnc1N[C@H]1C[C@@H]2CN(CC3CCOCC3)C[C@@H]2C1` [Example 112, (3aR,5s,6aS)-N-(6-(benzo[d]thiazol-6-yl)-4-(trifluoromethyl)pyridazin-3-yl)-2-((tetrahydro-2H-pyran-4-yl)methyl)octahydro-cyclopenta[c]pyrrol-5-amine], for which the negative-log IC50 (pIC50) is 8.05. Besides, the remaining activity at 30 µM (% ACh maximum at 30 μM) amounted to 3%.
As for `COc1ccc(F)cc1-c1cc(C(F)(F)F)c(N[C@H]2C[C@@H]3CN(CC4CCOCC4)C[C@@H]3C2)nn1` [Example 49, (3aR,5s,6aS)-N-(6-(5-fluoro-2-methoxyphenyl)-4-(trifluoromethyl)pyridazin-3-yl)-2-((tetrahydro-2H-pyran-4-yl)methyl)octahydro-cyclopenta[c]pyrrol-5-amine], the negative-log IC50 (pIC50) was 7.03. For the same compound, where the note is “% ACh maximum at 30 μM”, the remaining activity at 30 µM came to 3%.
As to `Cc1cc(F)c(F)c(-c2cc(C(F)(F)F)c(N[C@H]3C[C@@H]4CN(CC5CCOCC5)C[C@@H]4C3)nn2)c1` [Example 93, (3aR,5s,6aS)-N-(6-(2,3-difluoro-5-methylphenyl)-4-(trifluoromethyl)pyridazin-3-yl)-2-((tetrahydro-2H-pyran-4-yl)methyl)octahydro-cyclopenta[c]pyrrol-5-amine], the pIC50 is 6.76. For the same compound, the remaining activity at 30 µM (% ACh maximum at 30 μM) amounted to 3%.
With `Cn1cc2cc(-c3cnc(N[C@H]4C[C@@H]5CN(CCC(C)(C)C)C[C@@H]5C4)nc3)ccc2n1` [Example 14, (3aR,5s,6aS)-2-(3,3-dimethyl-butyl)-N-(5-(2-methyl-2H-indazol-5-yl)pyrimidin-2-yl)octahydro-cyclopenta[c]pyrrol-5-amine], the negative logarithm of the IC50 (pIC50) was 6.40. For the same compound, the remaining activity at 30 µM (% ACh maximum at 30 μM) was determined as 4%.
The matching figures for `Cc1cc(CN2C[C@H]3C[C@H](Nc4ncc(-c5cc(F)ccc5Cl)cn4)C[C@H]3C2)ccc1F` [Example 9, (3aR,5s,6aS)-N-(5-(2-chloro-5-fluorophenyl)pyrimidin-2-yl)-2-(4-fluoro-3-methylbenzyl)octahydro-cyclopenta[c]pyrrol-5-amine]: < 5.00 and 27%.
For `N#Cc1c(F)ccc(-c2cc(C(F)(F)F)c(N[C@H]3C[C@@H]4CN(CC5CCOCC5)C[C@@H]4C3)nn2)c1F` [Example 55, 2,6-difluoro-3-(6-(((3aR,5s,6aS)-2-((tetrahydro-2H-pyran-4-yl)methyl)octahydro-cyclopenta[c]pyrrol-5-yl)amino)-5-(trifluoro-methyl)pyridazin-3-yl)benzonitrile], in that order: 6.40 and 4%.
For the compound `[2H]C([2H])(C1CCOCC1)N1C[C@H]2C[C@H](Nc3nnc(-c4ccc(C)cc4C)cc3C(F)(F)F)C[C@H]2C1` [Example 126, (3aR,5s,6aS)-N-(6-(2,4-dimethyl-phenyl)-4-(trifluoro-methyl)pyridazin-3-yl)-2-((tetrahydro-2H-pyran-4-yl)methyl-d2)octahydro-cyclopenta[c]pyrrol-5-amine], the pIC50 is 7.03. The remaining activity at 30 µM (% ACh maximum at 30 μM) turned out to be 3%.
The matching figures for `COc1ccc(F)c(-c2cc(C(F)(F)F)c(N[C@H]3C[C@@H]4CN(CC5CCOCC5)C[C@@H]4C3)nn2)c1` [Example 57, (3aR,5s,6aS)-N-(6-(2-fluoro-5-methoxyphenyl)-4-(trifluoromethyl)pyridazin-3-yl)-2-((tetrahydro-2H-pyran-4-yl)methyl)octahydro-cyclopenta[c]pyrrol-5-amine]: 6.56 and 3%.
For `[2H]C([2H])(C1CCOCC1)N1C[C@H]2C[C@H](Nc3nnc(-c4cc(F)c(F)cc4F)cc3C(F)(F)F)C[C@H]2C1` [Example 125, (3aR,5s,6aS)-2-((tetrahydro-2H-pyran-4-yl)methyl-d2)-N-(4-(trifluoromethyl)-6-(2,4,5-trifluorophenyl)pyridazin-3-yl)octahydro-cyclopenta[c]pyrrol-5-amine], in that order: 6.47 and 4%.
For `Cc1ccc(F)cc1-c1cc(C#N)c(N[C@H]2C[C@@H]3CN(CC4CCOCC4)C[C@@H]3C2)nn1` [Example 146, 6-(5-fluoro-2-methylphenyl)-3-(((3aR,5s,6aS)-2-((tetrahydro-2H-pyran-4-yl)methyl)octahydro-cyclopenta[c]pyrrol-5-yl)amino)pyridazine-4-carbonitrile], in that order: 7.81 and 6%.
As to `Cc1ccc(F)cc1-c1cc(C(F)(F)F)c(O[C@H]2C[C@@H]3CN(CC4CCOCC4)C[C@@H]3C2)nn1` [Example 5, (3aR,5s,6aS)-5-((6-(5-fluoro-2-methylphenyl)-4-(trifluoromethyl)pyridazin-3-yl)oxy)-2-((tetrahydro-2H-pyran-4-yl)methyl)octahydrocyclopenta[c]pyrrole], the negative logarithm of the IC50 (pIC50) is 5.91. Besides, under “% ACh maximum at 30 μM”, the “Human M4 Emin” value was 7%.
`Fc1cc(F)c(-c2cc(C(F)(F)F)c(N[C@H]3C[C@@H]4CN(CC5CCOCC5)C[C@@H]4C3)nn2)cc1F` [Example 42, (3aR,5s,6aS)-2-((tetrahydro-2H-pyran-4-yl)methyl)-N-(4-(trifluoromethyl)-6-(2,4,5-trifluorophenyl)pyridazin-3-yl)octahydro-cyclopenta[c]pyrrol-5-amine]: the pIC50 was 6.63. The remaining activity at 30 µM (% ACh maximum at 30 μM) was determined as 3%.
The matching figures for `[2H]C([2H])(C1CCOCC1)N1C[C@H]2C[C@H](Nc3nnc(-c4cc(F)ccc4Cl)cc3C(F)(F)F)C[C@H]2C1` [Example 16, (3aR,5s,6aS)-N-(6-(2-chloro-5-fluorophenyl)-4-(trifluoro-methyl)pyridazin-3-yl)-2-((tetrahydro-2H-pyran-4-yl)methyl-d2)octahydro-cyclopenta[c]pyrrol-5-amine]: 8.04 and 3%.
For `Cn1cc2cc(-c3cc(C#N)c(N[C@H]4C[C@@H]5CN(C[C@H]6CC7CCC6O7)C[C@@H]5C4)nn3)ccc2n1` (stereo partly drawn) [Example 161, 3-(((3aR,5s,6aS)-2-(((2R)-7-oxabicyclo[2.2.1]heptan-2-yl)methyl)octahydro-cyclopenta[c]pyrrol-5-yl)amino)-6-(2-methyl-2H-indazol-5-yl)pyridazine-4-carbonitrile], in that order: 8.70 and 5%.
As for `Cn1cc2cc(-c3cc(C(F)(F)F)c(N[C@H]4C[C@@H]5CN(Cc6ccccn6)C[C@@H]5C4)nn3)ccc2n1` [Example 106, (3aR,5s,6aS)-N-(6-(2-methyl-2H-indazol-5-yl)-4-(trifluoromethyl)pyridazin-3-yl)-2-(pyridin-2-ylmethyl)octahydro-cyclopenta[c]pyrrol-5-amine], the pIC50 was 6.56. The remaining activity at 30 µM (% ACh maximum at 30 μM) stood at 4%.
The matching figures for `COc1cc(C)c(-c2cc(C(F)(F)F)c(N[C@H]3C[C@@H]4CN(CC5CCOCC5)C[C@@H]4C3)nn2)cc1C` [Example 52, (3aR,5s,6aS)-N-(6-(4-methoxy-2,5-dimethylphenyl)-4-(trifluoromethyl)pyridazin-3-yl)-2-((tetrahydro-2H-pyran-4-yl)methyl)octahydro-cyclopenta[c]pyrrol-5-amine]: 6.94 and 3%.
With `[2H]C([2H])(C1CCOCC1)N1C[C@H]2C[C@H](Nc3nnc(-c4ccc5c(cnn5C)c4)cc3C(F)(F)F)C[C@H]2C1` [Example 144, (3aR,5s,6aS)-N-(6-(1-methyl-1H-indazol-5-yl)-4-(trifluoromethyl)pyridazin-3-yl)-2-((tetrahydro-2H-pyran-4-yl)methyl)octahydro-cyclopenta[c]pyrrol-5-amine], the pIC50 was 7.15. Further, the remaining activity at 30 µM (% ACh maximum at 30 μM) was 3%.
Regarding `Cn1ccc2cc(-c3cc(C(F)(F)F)c(N[C@H]4C[C@@H]5CN(CC6CCOCC6)C[C@@H]5C4)nn3)ccc21` [Example 87, (3aR,5s,6aS)-N-(6-(1-methyl-1H-indol-5-yl)-4-(trifluoromethyl)pyridazin-3-yl)-2-((tetrahydro-2H-pyran-4-yl)methyl)octahydro-cyclopenta[c]pyrrol-5-amine], the pIC50 was 7.05. Under “% ACh maximum at 30 μM”, the remaining activity at 30 µM came to 4%.
For `[2H]C([2H])(C1CCOCC1)N1C[C@H]2C[C@H](Nc3nnc(-c4ccccc4)cc3C(F)(F)F)C[C@H]2C1` [Example 108, (3aR,5s,6aS)-N-(6-phenyl-4-(trifluoromethyl)pyridazin-3-yl)-2-((tetrahydro-2H-pyran-4-yl)methyl-d2)octahydro-cyclopenta[c]pyrrol-5-amine], in that order: 7.39 and 3%.
As to `C[C@@H]1CCCN(c2cc(C(F)(F)F)c(N[C@H]3C[C@@H]4CN(CC5CCOCC5)C[C@@H]4C3)nn2)C1` [Example 136, (3aR,5s,6aS)-N-(6-((R)-3-methylpiperidin-1-yl)-4-(trifluoromethyl)pyridazin-3-yl)-2-((tetrahydro-2H-pyran-4-yl)methyl)octahydro-cyclopenta[c]pyrrol-5-amine], the pIC50 was 7.69. Besides, the remaining activity at 30 µM (% ACh maximum at 30 μM) is 2%.

The values above are taken from US20230183219A1, “CONDENSED SUBSTITUTED HYDROPYRROLES AS ANTAGONISTS OF THE MUSCARINIC ACETYLCHOLINE RECEPTOR M4” (Vanderbilt University, priority 2020, published 2023).
